Experimental data reported in ChEMBL document CHEMBL1201862, “PubChem BioAssay data set” (2004).
Activity calls are given as the source filed them.

Tests used:
[1] = insulin promoter down-regulators in MIN6 cells, imaging, high-content screening, mouse beta cells (AID 1628); format: functional
[2] = cytotoxicity in MIN6 insulinoma cells, dose response, cytotoxicity control, cell-based, mouse insulinoma (AID 2122); format: functional;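 also: confirmatory high-throughput counterscreen run to flag cytotoxic compounds; mouse MIN-6 beta cells carrying an insulin promoter eGFP reporter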
[3] = THP-1 cell cytotoxicity, dose response, cytotoxicity control for non-replicating M. tuberculosis project (AID 489025); format: functional
[4] = HepG2 cell cytotoxicity, dose response, cytotoxicity control for non-replicating M. tuberculosis project (AID 489018); format: functional; conditions: Mycobacterium tuberculosis
[5] = Vero E6 cell cytotoxicity, dose response, cytotoxicity control for non-replicating M. tuberculosis project, secondary assay (AID 492998); format: functional, VeroE6; conditions: Vero C1008
[6] = cells; format: functional
[7] = biological target: T1, Corticotropin-releasing factor receptor 2/Corticotropin-releasing factor-binding protein (Homo sapiens, UniProt P24387+Q13324); experiment: Dose Response confirmation of uHTS hits for small molecule antagonists of the CRF-binding protein and CRF-R2 receptor complex.; format: functional; conditions: read-out: IC50_Mean
T1 sequence (Q13324 whole entry): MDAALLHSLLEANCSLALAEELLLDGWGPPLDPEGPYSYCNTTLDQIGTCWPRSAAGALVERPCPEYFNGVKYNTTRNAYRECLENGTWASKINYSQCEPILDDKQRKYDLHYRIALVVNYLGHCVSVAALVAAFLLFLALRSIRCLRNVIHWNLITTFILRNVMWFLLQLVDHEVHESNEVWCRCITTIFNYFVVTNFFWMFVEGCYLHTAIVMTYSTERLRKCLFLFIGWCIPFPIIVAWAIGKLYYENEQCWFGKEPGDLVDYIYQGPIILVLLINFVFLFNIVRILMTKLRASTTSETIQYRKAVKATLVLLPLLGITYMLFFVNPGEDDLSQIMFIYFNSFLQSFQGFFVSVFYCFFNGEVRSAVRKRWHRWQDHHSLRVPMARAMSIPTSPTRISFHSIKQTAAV
T1 sequence (P24387 whole entry): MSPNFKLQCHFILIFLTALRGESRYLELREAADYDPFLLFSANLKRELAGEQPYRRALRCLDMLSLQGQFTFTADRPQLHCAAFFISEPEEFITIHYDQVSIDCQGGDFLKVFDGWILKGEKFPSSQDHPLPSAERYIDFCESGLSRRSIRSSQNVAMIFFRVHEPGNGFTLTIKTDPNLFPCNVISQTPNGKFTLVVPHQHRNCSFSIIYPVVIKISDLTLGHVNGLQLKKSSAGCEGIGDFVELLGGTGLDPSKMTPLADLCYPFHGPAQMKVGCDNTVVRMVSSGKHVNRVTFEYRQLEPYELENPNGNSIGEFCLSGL

[8] = Shn3 3'UTR reporter inhibitors, dose response, cell-based, Clone20 osteoblasts, firefly luciferase, cherry-picked (AID 624132); format: functional;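 also: firefly luciferase luminescence from reporter carrying the Shn3 3'UTR in osteoblasts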
[9] = HepG2 cell cytotoxicity, dose response, cytotoxicity control for Shn3 inhibitor project, CellTiter-Glo, cherry-picked (AID 624134); format: functional, cell-based
[10] = biological target: T1, Corticotropin-releasing factor receptor 2/Corticotropin-releasing factor-binding protein; experiment: activators of CRF receptor 2 with binding protein – uHTS hits, confirmation (AID 602473); format: functional; conditions: read-out: EC50_Mean
[11] = control 3'UTR Renilla luciferase suppression, dose response, counter-screen for Shn3 inhibitor project, cell-based, Clone20-Shn3RL, cherry-picked (AID 624133); format: functional
[12] = biological target: Peroxisome proliferator-activated receptor gamma/Nuclear receptor coactivator 1 (Homo sapiens, UniProt P37231); experiment: (§1) TR-FRET dose response biochemical High Throughput Screening assay for agonists of the steroid receptor coactivator 1 (SRC-1) recruitment by the peroxisome proliferator-activated receptor gamma (PPAR gamma): non-selective agonists. [Related pubchem assays (depositor defined):AID1300, AID1808, AID504735, AID631]; format: protein assay
[13] = biological target: Peroxisome proliferator-activated receptor gamma/Nuclear receptor coactivator 3 (Homo sapiens, UniProt P37231); experiment: as §1, with “3 (SRC-3)” for “1 (SRC-1)”, “assays: 1301 (Confirmation screen.), 1048 (Primary screen.)]” for “assays (depositor defined):AID1300, AID1808, AID504735, AID631]”; format: functional
[14] = biological target: Peroxisome proliferator-activated receptor gamma/Nuclear receptor coactivator 2 (Homo sapiens, UniProt P37231); experiment: TR-FRET dose response biochemical High Throughput Screening assay for agonists of the steroid receptor coactivator 2 (SRC-2) recruitment by the peroxisome proliferator-activated receptor gamma (PPAR gamma): non-selective agonists. [Related pubchem assays: 1297, 1032 ]; format: functional
[15] = biological target: Mitogen-activated protein kinase 10 (Homo sapiens, UniProt P53779); experiment: Dose response biochemical screening assay for inhibitors of c-Jun N-Terminal Kinase 3 (JNK3). [Related pubchem assays: 746 ]
[16] = biological target: Major prion protein (Homo sapiens, UniProt P04156); format: functional, cell-based
[17] = cells
[18] = biological target: Cytochrome P450 3A4 (Homo sapiens, UniProt P08684);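 also: CYP3A4 tested as one member of a cytochrome P450 panel screen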
[19] = biological target: T2, Heat shock factor protein 1 (Mus musculus, UniProt P38532); experiment: HSF1 potentiators in luciferase reporter cells, confirmation, cell-based, NIH3T3, luminescence, dose retest (AID 435004); format: functional;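 also: stress induced by proteasome inhibitor MG132 added 30 min after compound; luciferase reporter driven by HSF1 response element in NIH3T3 cells; actives raise luminescence as potentiators of the MG132 stress response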
T2 sequence (P38532 whole entry): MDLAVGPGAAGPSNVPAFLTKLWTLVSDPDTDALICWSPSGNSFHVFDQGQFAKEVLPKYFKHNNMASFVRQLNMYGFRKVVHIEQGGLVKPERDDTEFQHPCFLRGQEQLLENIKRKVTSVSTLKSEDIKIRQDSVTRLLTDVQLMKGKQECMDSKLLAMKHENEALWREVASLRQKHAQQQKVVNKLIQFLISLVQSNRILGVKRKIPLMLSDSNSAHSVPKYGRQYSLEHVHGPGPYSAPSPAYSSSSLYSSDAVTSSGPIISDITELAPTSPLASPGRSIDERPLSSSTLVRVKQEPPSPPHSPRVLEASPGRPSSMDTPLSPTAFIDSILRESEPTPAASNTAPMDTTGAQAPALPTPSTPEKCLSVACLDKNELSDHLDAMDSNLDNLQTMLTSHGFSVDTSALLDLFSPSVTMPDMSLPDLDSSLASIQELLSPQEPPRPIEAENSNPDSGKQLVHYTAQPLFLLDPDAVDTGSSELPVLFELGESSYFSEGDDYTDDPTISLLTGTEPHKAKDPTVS

[20] = biological target: Cytochrome P450 2D6 (Homo sapiens, UniProt P10635);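 also: CYP2D6 member of a cytochrome P450 panel assay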
[21] = biological target: T3, Cytochrome P450 1A2 (Homo sapiens, UniProt P05177);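 also: PubChem cytochrome P450 panel assay, CYP1A2 panel member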
T3 sequence (P05177 whole entry): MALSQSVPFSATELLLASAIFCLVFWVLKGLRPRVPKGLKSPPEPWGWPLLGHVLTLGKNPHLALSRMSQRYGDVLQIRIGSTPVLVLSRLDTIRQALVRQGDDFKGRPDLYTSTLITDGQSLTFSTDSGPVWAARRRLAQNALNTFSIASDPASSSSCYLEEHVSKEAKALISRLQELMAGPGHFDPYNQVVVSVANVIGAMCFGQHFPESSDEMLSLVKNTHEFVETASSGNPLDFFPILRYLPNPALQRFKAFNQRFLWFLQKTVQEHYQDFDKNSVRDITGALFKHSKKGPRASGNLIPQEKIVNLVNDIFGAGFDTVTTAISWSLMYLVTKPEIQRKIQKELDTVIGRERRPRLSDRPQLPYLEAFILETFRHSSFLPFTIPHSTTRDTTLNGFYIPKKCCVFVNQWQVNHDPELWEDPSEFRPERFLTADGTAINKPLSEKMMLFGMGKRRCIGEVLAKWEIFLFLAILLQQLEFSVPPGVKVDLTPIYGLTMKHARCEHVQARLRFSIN

[22] = system: HEK293; experiment: NOD1 signaling inhibitors, primary screen, cell-based, luminescence, uHTS (AID 1578); format: functional; conditions: Homo sapiens
[23] = system: HEK293; experiment: cells; format: functional, cell-based; conditions: Homo sapiens
[24] = system: HEK293; experiment: cells; format: functional, cell-based; conditions: Homo sapiens; remark: listed apart in the source
[25] = system: HEK293; experiment: NOD2 signaling inhibitors in MDP-stimulated cells, cell-based, uHTS, luminescence (AID 2001); format: functional; conditions: Homo sapiens
[26] = cytotoxicity in HEK-293T cells, dose response, cytotoxicity control for TCR NF-kB inhibitor project, luminescence, T-cell screen hits (AID 489026); format: functional, cell-based;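 also: cells exposed to compound about 14 hours before the viability readout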
[27] = system: INS1; experiment: beta cell apoptosis inhibitors, cytokine rescue, dose response, luminescence, retest (AID 449756); format: functional, cell-based; conditions: Rattus norvegicus;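 also: cell death triggered by IL-1 beta plus TNF-alpha plus IFN-gamma mixture; protective hits raise ATP signal compared with cytokine alone wells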
[28] = HEp-2 cell cytotoxicity, dose response, cytotoxicity control for RSV inhibitor project, HTS (AID 2410); format: functional; conditions: human respiratory syncytial virus
[29] = growth suppression of PTEN-null colon cells, dose response, cell-based, HCT116 PTEN knockout (AID 1047); format: functional;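 also: HCT116 colon tumor cells with PTEN knocked out; cells exposed to compound for 60 hours before readout; potency for loss of cell viability measured by luminescence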
[30] = growth suppression of beta-catenin-knockout colon cells, dose response, cell-based, HCT116, human colon tumor (AID 1045); format: functional;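 also: HCT116 colon tumor cells with beta catenin knocked out; cells exposed to compound for 60 hours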
[31] = biological target: T4, Bcl-2-related protein A1 (Mus musculus, UniProt Q07440); format: functional;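 also: confirmatory dose–response counterscreen on Bfl-1, used to check hits from a UBC13 polyubiquitin inhibitor campaign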
T4 sequence (Q07440 whole entry): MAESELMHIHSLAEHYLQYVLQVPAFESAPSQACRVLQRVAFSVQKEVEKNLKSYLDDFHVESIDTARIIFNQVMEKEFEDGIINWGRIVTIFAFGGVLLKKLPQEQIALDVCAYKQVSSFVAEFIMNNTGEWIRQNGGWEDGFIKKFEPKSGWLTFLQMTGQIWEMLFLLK

[32] = biological target: T5, Ubiquitin-conjugating enzyme E2 N (Homo sapiens, UniProt P61088); format: functional
T5 sequence (P61088 whole entry): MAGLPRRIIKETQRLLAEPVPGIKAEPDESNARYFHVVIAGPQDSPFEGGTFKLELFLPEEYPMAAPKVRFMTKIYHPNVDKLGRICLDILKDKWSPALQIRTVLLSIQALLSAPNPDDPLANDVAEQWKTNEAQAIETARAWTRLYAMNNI

[33] = biological target: T5, Ubiquitin-conjugating enzyme E2 N; format: functional; remark: listed apart in the source
[34] = biological target: T6, DNA repair protein RAD52 homolog (Homo sapiens, UniProt P43351); format: functional, biochemical
T6 sequence (P43351 whole entry): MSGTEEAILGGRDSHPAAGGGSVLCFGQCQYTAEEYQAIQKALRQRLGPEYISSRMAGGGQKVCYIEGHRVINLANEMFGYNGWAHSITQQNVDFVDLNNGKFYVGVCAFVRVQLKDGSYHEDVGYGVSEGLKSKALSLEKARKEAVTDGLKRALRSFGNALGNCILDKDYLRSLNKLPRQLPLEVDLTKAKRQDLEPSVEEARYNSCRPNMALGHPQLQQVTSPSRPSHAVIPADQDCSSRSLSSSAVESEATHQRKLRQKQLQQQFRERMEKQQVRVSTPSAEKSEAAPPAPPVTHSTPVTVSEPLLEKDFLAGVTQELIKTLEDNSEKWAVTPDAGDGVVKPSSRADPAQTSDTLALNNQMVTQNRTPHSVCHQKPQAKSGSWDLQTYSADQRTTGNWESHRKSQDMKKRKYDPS

[35] = biological target: Heat shock protein HSP 90-alpha (Homo sapiens, UniProt P07900); format: functional, organism-based
[36] = biological target: SUMO E1/E2 (Homo sapiens, UniProt P63279+Q9UBE0+Q9UBT2); experiment: SAR analysis of SUMOylation using HTRF in an in-Vitro dose response assay. [Related pubchem assays (depositor defined):AID2006, AID2011, AID2018, AID2069, AID2658]; format: functional

With `Cc1cc(C)nc(N=C(N)Nc2ccc(-c3ccccc3)cc2)n1` the IC50 [1] was 1.56 µM (active), the IC50 [2] was 1.36 µM (active) and the CC50 [3] was 9.89 µM (active). The CC50 [4] was 18.2 µM (active), the CC50 [5] was > 20 µM (active) and the IC50 [6] was 39 µM (active). The IC50 [7] was > 47.1 µM (inactive), the AC50 [8] was 4.45 µM (active) and the AC50 [9] was > 70 µM (inactive). For the same molecule, the EC50 [10] was 31.7 µM (active) and the AC50 [11] was 22.6 µM (active).

With `COc1ccc(Cl)cc1-c1nnc(S)o1` the EC50 [12] was 3.67 µM (active), the EC50 [13] was > 79.4 µM (not active) and the EC50 [14] was 3.4 µM (active). The IC50 [15] was 16.2 µM (not active), the IC50 [16] was 2.08 µM (active) and the IC50 [17] was > 138 µM (inactive).

With `COCC(=O)N1CCN(c2ccc([N+](=O)[O-])cc2)CC1` the AC50 [18] was “inconclusive”.

For `Cn1c(=O)cc(SCC(=O)N2CCOCC2)c2ccc(Cl)cc21`, the EC50 [12] was > 79.4 µM (inactive), the EC50 [13] was > 79.4 µM (not active) and the EC50 [14] was > 79.4 µM (not active). The EC50 [19] was > 260 µM (inactive).

For `S=C(NCCC1=CCCCC1)NCc1ccco1`, the IC50 [1] was 2.95 µM (active) and the IC50 [2] was 2.64 µM (active).

In the case of `COCCCNC(=O)c1ccc2c(=O)n(CC3CCCO3)c(=S)[nH]c2c1` (stereo not drawn), the AC50 [20] was 0.178 µM (inconclusive), the AC50 [21] was 20 µM (inconclusive) and the AC50 [18] was “inconclusive”.

In the case of `CCn1nc(C)c(CNC(=O)c2ccc(OC3CCN(Cc4ccccn4)CC3)cc2)c1C`, the EC50 [22] was 2.57 µM (active), the IC50 [23] was 4.94 µM (active) and the IC50 [24] was 13.8 µM (active). For the same molecule, the IC50 [25] was 9.64 µM (active), the IC50 [26] was > 80 µM (inactive) and the AC50 [27] was 3.87 µM (active).

With `Cc1ccc(C)c(OCC(O)CN2CCN(CCN3C(=O)c4cccc5cccc(c45)C3=O)CC2)c1` (stereo not drawn) the CC50 [28] was 15.8 µM (active), the EC50 [29] was 6.21 µM (active) and the EC50 [30] was 3.71 µM (active). For the same molecule, the IC50 [31] was > 20 µM (inactive), the IC50 [32] was 7.55 µM (active) and the IC50 [33] was 9.34 µM (active). The AC50 [34] was 7.35 µM (active).

For `CCN(CC)S(=O)(=O)c1cccc(NC(=O)c2ccc(Br)cc2)c1`, the EC50 [22] was 11.6 µM (active), the IC50 [23] was 10.1 µM (active) and the IC50 [24] was 14.1 µM (active). The IC50 [25] was 7.75 µM (active) and the AC50 [35] was 3.55 µM (active).

With `O=C1c2oc3ccccc3c(=O)c2C(c2ccccc2)N1c1nccs1` (stereo not drawn) the IC50 [36] was 22.4 µM (active).

With `CCCN(CCc1ccccc1)[C@H]1CCc2c(O)cccc2C1` the AC50 [21] was 12.6 µM (inconclusive) and the AC50 [18] was “inconclusive”.
